Reference: US11028061B2, “Modulators of myocyte lipid accumulation and insulin resistance and methods of use thereof” (Sanford Burnham Prebys Medical Discovery Institute, priority 2015, dated 2021)

System: primary murine skeletal myocytes
Assay: TAG accumulation in primary murine skeletal myocytes
Type: cell-based
Settings: Mus musculus, read-out: Activity Score (IC50), triacylglyceride (TAG) accumulation

Structure (SMILES) | IC50 [nM]
CCNc1ccc(C(=O)Nc2nc(-c3ccc(OC)cc3)cs2)cc1OCCO [Cpd. 99, 4-(ethylamino)-3-(2-hydroxyethoxy)-N-(4-(4-methoxyphenyl)thiazol-2-yl)benzamide] | 1000 to 10000

Same assay, conditions: Mus musculus; primary murine skeletal myocytes; read-out: Activity Score (IC50), triacylglyceride (TAG) accumulation

Structure (SMILES) | IC50 [nM]
CNC(=O)COc1ccc(C(=O)Nc2nc(-c3ccc(OC)cc3Cl)cs2)cc1 [Cpd. 58, N-(4-(2-chloro-4-methoxyphenyl)thiazol-2-yl)-4-(2-(methylamino)-2-oxoethoxy)benzamide] | < 1000
O=C(Nc1nc2ccccc2s1)c1ccc(OCC(=O)N2CCOCC2)cc1 [Cpd. 87, N-(benzo[d]thiazol-2-yl)-4-(2-morpholino-2-oxoethoxy)benzamide] | > 10000
COc1cc(C(=O)Nc2cccc(-c3ccccc3)c2)ccc1OCC(=O)N1CCOCC1 [Cpd. 83, N-([1,1′-biphenyl]-3-yl)-3-methoxy-4-(2-morpholino-2-oxoethoxy)benzamide] | > 10000
COCCOc1ccc(-c2csc(NC(=O)c3ccc(OCC(=O)N4CCOCC4)cc3)n2)cc1 [Cpd. 43, N-(4-(4-(2-methoxyethoxy)phenyl)thiazol-2-yl)-4-(2-morpholino-2-oxoethoxy)benzamide] | < 1000
COc1ccc(-c2csc(NC(=O)c3ccc(OCC(=O)N4CCOCC4)cc3)n2)c(F)c1 [Cpd. 56, N-(4-(2-fluoro-4-methoxyphenyl)thiazol-2-yl)-4-(2-morpholino-2-oxoethoxy)benzamide] | < 1000
COc1ccccc1-c1csc(NC(=O)c2ccc(OCC(=O)N3CCOCC3)cc2)n1 [Cpd. 50, N-(4-(2-methoxyphenyl)thiazol-2-yl)-4-(2-morpholino-2-oxoethoxy)benzamide] | < 1000
O=C(Nc1nc(-c2ccccc2F)cs1)c1ccc(OCC(=O)N2CCOCC2)cc1 [Cpd. 49, N-(4-(2-fluorophenyl)thiazol-2-yl)-4-(2-morpholino-2-oxoethoxy)benzamide] | < 1000
COc1ccc(-c2csc(NC(=O)c3ccc(NCC(=O)N(C)C)cc3)n2)cc1 [compound 68, 4-((2-(dimethylamino)-2-oxoethyl)amino)-N-(4-(4-methoxyphenyl)thiazol-2-yl)benzamide] | < 1000
O=C(Nc1nc(-c2cccc(Cl)c2)cs1)c1ccc(OCC(=O)N2CCOCC2)cc1 [Cpd. 52, N-(4-(3-chlorophenyl)thiazol-2-yl)-4-(2-morpholino-2-oxoethoxy)benzamide] | < 1000
COc1ccc(-c2csc(NC(=O)c3ccc(OCC(=O)N4CCOCC4)cn3)n2)cc1 [Cpd. 92, N-(4-(4-methoxyphenyl)thiazol-2-yl)-5-(2-morpholino-2-oxoethoxy)picolinamide] | > 10000
COc1cc(C(=O)Nc2nc(-c3ccc(N4CCCC4)cc3)cs2)ccc1OCC(=O)N1CCOCC1 [Cpd. 34, 3-methoxy-4-(2-morpholino-2-oxoethoxy)-N-(4-(4-(pyrrolidin-1-yl)phenyl)thiazol-2-yl)benzamide] | < 1000
COc1ccc(-c2cnc(NC(=O)c3ccc(OCC(=O)N4CCOCC4)c(OC)c3)s2)cc1 [compound 80, 3-methoxy-N-(5-(4-methoxyphenyl)thiazol-2-yl)-4-(2-morpholino-2-oxoethoxy)benzamide] | > 10000
COc1ccc(-c2csc(NC(=O)c3ccc(NCC(=O)N4CCOCC4)cc3)n2)c(Cl)c1 [compound 70, N-(4-(2-chloro-4-methoxyphenyl)thiazol-2-yl)-4-((2-morpholino-2-oxoethyl)amino)benzamide] | < 1000
COc1ccc(-c2csc(NC(=O)c3ccc(OCC(=O)N4CCOCC4)nc3)n2)cc1 [Cpd. 93, N-(4-(4-methoxyphenyl)thiazol-2-yl)-6-(2-morpholino-2-oxoethoxy)nicotinamide] | > 10000
O=C(Nc1nc(-c2ccccc2Cl)cs1)c1ccc(OCC(=O)N2CCOCC2)cc1 [Cpd. 48, N-(4-(2-chlorophenyl)thiazol-2-yl)-4-(2-morpholino-2-oxoethoxy)benzamide] | < 1000
CCNC(=O)COc1ccc(C(=O)Nc2nc(-c3ccc(OC)cc3Cl)cs2)cc1 [Cpd. 59, N-(4-(2-chloro-4-methoxyphenyl)thiazol-2-yl)-4-(2-(ethylamino)-2-oxoethoxy)benzamide] | < 1000
O=C(Nc1nc(-c2ccc(OC(F)F)cc2)cs1)c1ccc(OCC(=O)N2CCOCC2)cc1 [Cpd. 40, N-(4-(4-(difluoromethoxy)phenyl)thiazol-2-yl)-4-(2-morpholino-2-oxoethoxy)benzamide] | < 1000
CC(C)Oc1ccc(-c2csc(NC(=O)c3ccc(OCC(=O)N4CCOCC4)cc3)n2)c(Cl)c1 [Cpd. 55, N-(4-(2-chloro-4-isopropoxyphenyl)thiazol-2-yl)-4-(2-morpholino-2-oxoethoxy)benzamide] | < 1000
Cc1cccc(-c2csc(NC(=O)c3ccc(OCC(=O)N4CCOCC4)cc3)n2)c1 [Cpd. 51, 4-(2-morpholino-2-oxoethoxy)-N-(4-(m-tolyl)thiazol-2-yl)benzamide] | < 1000
COc1ccc(-c2csc(NC(=O)c3ccc(OCC(=O)N4CCOCC4)c(OC)c3)n2)cc1OC [Cpd. 38, N-(4-(3,4-dimethoxyphenyl)thiazol-2-yl)-3-methoxy-4-(2-morpholino-2-oxoethoxy)benzamide] | 1000 to 10000
COc1ccc(-c2csc(NC(=O)CCC(=O)N3CCOc4ccccc43)n2)cc1 [Cpd. 81, 4-(2,3-dihydro-4H-benzo[b][1,4]oxazin-4-yl)-N-(4-(4-methoxyphenyl)thiazol-2-yl)-4-oxobutanamide] | < 1000
COc1cc(C(=O)Nc2ncc(Cc3cccc(C(F)(F)F)c3)s2)ccc1OCC(=O)N1CCOCC1 [Cpd. 100, 3-methoxy-4-(2-morpholino-2-oxoethoxy)-N-(5-(3-(trifluoromethyl)benzyl)thiazol-2-yl)benzamide] | > 10000
CNC(=O)CNc1ccc(C(=O)Nc2nc(-c3ccc(OC)cc3)cs2)cc1 [compound 67, N-(4-(4-methoxyphenyl)thiazol-2-yl)-4-((2-(methylamino)-2-oxoethyl)amino)benzamide] | < 1000
COc1ccc(Cc2cnc(NC(=O)c3ccc(OCC(=O)N4CCOCC4)c(OC)c3)s2)cc1 [Cpd. 98, 3-methoxy-N-(5-(4-methoxybenzyl)thiazol-2-yl)-4-(2-morpholino-2-oxoethoxy)benzamide] | 1000 to 10000
COc1ccc(-c2csc(NC(=O)c3cccc(OCC(=O)N4CCOCC4)c3)n2)cc1 [Cpd. 94, N-(4-(4-methoxyphenyl)thiazol-2-yl)-3-(2-morpholino-2-oxoethoxy)benzamide] | 1000 to 10000
O=C(Nc1nc(-c2cccc(F)c2)cs1)c1ccc(OCC(=O)N2CCOCC2)cc1 [Cpd. 53, N-(4-(3-fluorophenyl)thiazol-2-yl)-4-(2-morpholino-2-oxoethoxy)benzamide] | < 1000

Results, then the compound that gave them:

IC50 [nM] | Structure (SMILES)
< 1000 | COc1ccc(-c2csc(NC(=O)c3ccc(NCC(=O)N4CCOCC4)c(OC)c3)n2)cc1 [Cpd. 75, 3-methoxy-N-(4-(4-methoxyphenyl)thiazol-2-yl)-4-((2-morpholino-2-oxoethyl)amino)benzamide]
1000 to 10000 | COc1ccc(-c2csc(NC(=O)c3ccc(OCC(=O)N(C)C)c(OC)c3)n2)cc1 [Cpd. 19, 4-(2-(dimethylamino)-2-oxoethoxy)-3-methoxy-N-(4-(4-methoxyphenyl)thiazol-2-yl)benzamide]
< 1000 | CCOc1ccc(-c2csc(NC(=O)c3ccc(OCC(=O)N4CCOCC4)c(OC)c3)n2)cc1 [Cpd. 28, N-(4-(4-ethoxyphenyl)thiazol-2-yl)-3-methoxy-4-(2-morpholino-2-oxoethoxy)benzamide]
< 1000 | COc1cc(C(=O)Nc2nc(-c3ccc(OC(C)C)cc3)cs2)ccc1OCC(=O)N1CCOCC1 [Cpd. 29, N-(4-(4-isopropoxyphenyl)thiazol-2-yl)-3-methoxy-4-(2-morpholino-2-oxoethoxy)benzamide]
< 1000 | COc1cc(C(=O)Nc2nc(-c3ccc(Cl)cc3)cs2)ccc1OCC(=O)N1CCOCC1 [Cpd. 31, N-(4-(4-chlorophenyl)thiazol-2-yl)-3-methoxy-4-(2-morpholino-2-oxoethoxy)benzamide]
> 10000 | COc1ccc(-c2csc(NC(=O)c3ccc(OCC(=O)N4CCN(S(C)(=O)=O)CC4)c(OC)c3)n2)cc1 [Cpd. 13, 3-methoxy-N-(4-(4-methoxyphenyl)thiazol-2-yl)-4-(2-(4-(methylsulfonyl)piperazin-1-yl)-2-oxoethoxy)benzamide]
1000 to 10000 | COc1ccc(-c2csc(NC(=O)c3ccc(OCC(=O)NCCN4CCCCC4)c(OC)c3)n2)cc1 [Cpd. 14, 3-methoxy-N-(4-(4-methoxyphenyl)thiazol-2-yl)-4-(2-oxo-2-((2-(piperidin-1-yl)ethyl)amino)ethoxy)benzamide]
< 1000 | COc1cc(C(=O)Nc2nc(-c3ccc(C#N)cc3)cs2)ccc1OCC(=O)N1CCOCC1 [Cpd. 32, N-(4-(4-cyanophenyl)thiazol-2-yl)-3-methoxy-4-(2-morpholino-2-oxoethoxy)benzamide]
> 10000 | COc1cc(C(=O)Nc2nc(-c3ccc(C)cc3)cs2)ccc1O [Cpd. 3, 4-hydroxy-3-methoxy-N-(4-(p-tolyl)thiazol-2-yl)benzamide]
1000 to 10000 | COc1cccc(-c2csc(NC(=O)c3ccc(OCC(=O)N4CCOCC4)c(OC)c3)n2)c1 [Cpd. 35, 3-methoxy-N-(4-(3-methoxyphenyl)thiazol-2-yl)-4-(2-morpholino-2-oxoethoxy)benzamide]
1000 to 10000 | COc1ccc(-c2csc(NC(=O)c3ccc(OCC(=O)NCc4ccccc4)c(OC)c3)n2)cc1 [Cpd. 23, 4-(2-(benzylamino)-2-oxoethoxy)-3-methoxy-N-(4-(4-methoxyphenyl)thiazol-2-yl)benzamide]
< 1000 | COc1ccc(-c2csc(NC(=O)c3ccc(OCC(=O)N4CCSCC4)c(OC)c3)n2)cc1 [Cpd. 11, 3-methoxy-N-(4-(4-methoxyphenyl)thiazol-2-yl)-4-(2-oxo-2-thiomorpholinoethoxy)benzamide]
1000 to 10000 | COc1ccc(-c2csc(NC(=O)c3ccc(OCC(=O)NCC4CC4)c(OC)c3)n2)cc1 [Cpd. 10, 4-(2-((cyclopropylmethyl)amino)-2-oxoethoxy)-3-methoxy-N-(4-(4-methoxyphenyl)thiazol-2-yl)benzamide]
1000 to 10000 | COc1ccc(-c2csc(NC(=O)c3ccc(OCC(N)=O)c(OC)c3)n2)cc1 [Cpd. 17, 4-(2-amino-2-oxoethoxy)-3-methoxy-N-(4-(4-methoxyphenyl)thiazol-2-yl)benzamide]
